How the values were obtained:
[1] = Dissolution kinetics in water by online refractometry; type: physicochemical; details: 60 mL water, stirred 500 rpm, room temperature, particle size 100-200 μm, refractive index
Protocol: FIG. 1 Dissolution kinetics. The change in refractive index (n) was measured by online-refractometry in water over the time period 0 to 50 seconds. 0.56 g of pure NaCl (triangle); 2.58 g of (L-serine)2.sodium chloride co-crystals (diamond); a physical mixture of 2.02 g L-serine and 0.56 g NaCl (cross); and a 2.02 g of pure L-serine (star) were each added to 60 mL of water stirred (500 rpm) at room temperature. The particle size of the respective solids was standardized in the range 100-200 μm.
The rate of dissolution of a solid in a liquid may be measured by refractometry. A refractometer measures the extent to which light is refracted when it moves from air into a sample, thereby allowing the refractive index (n) of the sample to be measured. […] Accordingly, by monitoring the change in refractive index over time, the kinetic rate of dissolution of a solid can be determined. So that independent measurements of dissolution rate can be compared, the refractive index values may be normalised by expression as a percentage of the maximal value recorded in a particular experiment.
The dissolution behaviour of (L-serine)2.sodium co-crystals obtained by direct crystallisation from a saturated solution (Example 2) were tested by refractometry. In this experiment, test samples were added to 60 mL of water, and the extent of dissolution was measured while stirring at 500 rpm. […]

trained panellists = assay: Sensory evaluation of tablets by 11 trained panellists; type: in vivo; details: tablets 123.7 mg
Protocol: Bars coloured black denote a significant difference in a particular taste/sensory characteristic. Unshaded bars denote that there is no significant difference in the characteristic. A positive number represents an increased sensory response of the co-crystal compared to the physical mixture.
Tablets for sensory evaluation were prepared using a Romaco Kilian Styl'One single-stroke tablet press. […] The tablets were prepared with three compressions of 300 ms and an interval of 200 ms.
Each of the panellists received a tray with two tablets presented on plastic plates coded with random 3-digit numbers. The tablets had to be crunched with the front teeth and kept in mouth to dissolve slowly (method 1). Alternatively, tablets could be crunched with the front teeth and chewed constantly in the mouth until complete dissolution occurred (method 2).
Afterwards the panellists were asked to rate the taste of the tablets in respect of the following 12 categories: upfront saltiness (1), overall saltiness (2), sweetness (3), sourness (4), umami (5), friable (6), melting (7), overall persistence (8), saltiness persistence (9), sweetness persistence (10), sourness persistence (11), and tingling (12).

Row | SMILES | time to reach 90% dissolution [1] | salty taste perceived, co-crystal tablets vs L-serine/NaCl physical mix tablets (trained panellists; during and after consumption) | overall saltiness vs physical mix (trained panellists; FIG. 2) | saltiness persistence vs physical mix (trained panellists; FIG. 2) | upfront saltiness vs physical mix (trained panellists; FIG. 2)
1 | N[C@@H](CO)C(=O)O.N[C@@H](CO)C(=O)O.[Cl-].[Na+] [(L-serine)2.sodium chloride co-crystals, (L-serine)2.sodium chloride] | around 25 seconds | significantly more salty | superior | superior | superior
2 | [Cl-].[Na+] [NaCl, Sodium chloride, reference compound] | around 25 seconds | – | – | – | –

Source: patent publication US20190059429A1, “SALT COMPOSITION INCLUDING SERINE” (NESTEC S.A., priority 2016, published 2019)
